How the values were obtained:
leukocyte = conditions: in vitro, cited from earlier work
Solubility in water = type: physicochemical
[1] = system: Chung model as a rat neuropathic pain model; assay: von Frey test, pain threshold in the Chung model; type: in vivo; conditions: for pain threshold at the von Frey test: vs distilled water-dosed group; for pain threshold, dose dependence: 1 to 6 g/kg oral
Procedure: Male SD rats of age 6 weeks were divided into groups, each group consisting of 10 rats. So as to examine the effect of a test substance on neuropathic pain, the Chung model was prepared. Specifically, unilateral 5-th and 6-th lumbar pulp nerves of the lumbar pulp nerves were completely knotted at a site as close as possible to lumbar vertebrae. After a 10-day recovery period, the von Frey test was done on the footpad on the surgery side, to measure the pain threshold. The von Frey test was done three times at a 1-week interval as drug holiday. At the first test, the effect of D-allose on the pain threshold was examined; and at the second test and the third test, the effects of D-psicose and a mixture of D-allose and D-psicose on the pain threshold were examined. The test substances were all dissolved in distilled water. The dose in volume was 5 mL/kg for oral administration. The pain threshold was measured immediately before the administration of test substances, and 15 minutes, 30 minutes, 60 minutes and 120 minutes after the administration. The results are expressed as mean and standard error. The significance of the mean was tested by the Dunnett's multiple test. Neuropathic pain models are frequently used as human neuralgia models for making research works on pain and screening for analgesics. […] The Chung model as the neuropathic pain model used in the research works is a model with a characteristic feature such that the model is afflicted with a strong pain on contact stimulation, and is known that the model is annoyed with a pain very similar to human neuralgia (Exp. Brain Res., 113, 200-206, 1997). In such model, the von Frey test is frequently used so as to assay the pain intensity via contact. The von Frey test is a method for observing whether or not an animal when the footpad is pressed with a fine metal wire withdraws the leg. When the animal withdraws the leg, the force just pressing the footpad is defined the threshold then.

Row | Structure (SMILES) | active oxygen generation (leukocyte; leukocyte) | solubility in water (Solubility in water) | pain threshold at the von Frey test ([1]; 1 g/kg oral, N=10) | pain threshold at the von Frey test ([1]; 3 g/kg oral, 15 minutes after administration) | pain threshold at the von Frey test ([1]; 6 g/kg oral, 15, 30 and 60 minutes after administration) | pain threshold, dose dependence ([1]; single administration) | MCP-1 secretion (leukocyte; similar experiments) | active oxygen scavenging (leukocyte; similar experiments) | pain threshold at the von Frey test ([1]; 1 g/kg oral, 15 minutes after administration) | pain threshold at the von Frey test ([1]; 3 g/kg oral, 15 and 30 minutes after administration) | increase of the threshold compared with the administration of D-allose ([1]; single administration, oral)
1 | O=C[C@H](O)[C@H](O)[C@H](O)[C@H](O)CO [D-allose] | action of suppressing active oxygen generation | highly soluble in water | not significantly different | significant increase | significant increase | highly raised, in a manner proportional to the dose |  |  |  |  | 
2 | O=C(CO)[C@H](O)[C@H](O)[C@H](O)CO [D-psicose] |  | highly soluble in water |  |  |  | highly raised, in a manner proportional to the dose | MCP-1 secretion-suppressing action | active oxygen-scavenging action | not significantly different | significant increase | greater
